In PubChem BioAssay (NCI):
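Results reflect a 48-hour exposure of cells in 96-well plates to compound at five concentrations. Here, GI50 denotes the concentration required for 50% inhibition of growth. TGI marks complete inhibition of growth.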 Where a SMILES comes first, the peptide text is derived from it. [ ]: non-standard residue; d: D form. Phe(F5) = N[CH](Cc1c(F)c(F)c(F)c(F)c1F)C(=O)O

Experiments:
Assay in all cases: NCI anticancer screen, dose series, 48 h
[1] = system: CCRF-CEM leukemia
[2] = system: UACC-62 melanoma
[3] = system: MCF7 breast
[4] = system: SF-295 CNS
[5] = system: SK-OV-3 ovarian
[6] = system: NCI-H226 lung
[7] = system: HL-60(TB) leukemia
[8] = system: SK-MEL-28 melanoma
[9] = system: RXF 393 renal
[10] = system: T-47D breast

Structure (SMILES) | GI50 [1] [nM] | TGI [1] [nM] | GI50 [2] [nM] | TGI [2] [nM] | GI50 [3] [nM] | TGI [3] [nM] | GI50 [4] [nM] | TGI [4] [nM] | GI50 [5] [nM] | TGI [5] [nM] | GI50 [6] [nM] | TGI [6] [nM] | GI50 [7] [nM] | TGI [7] [nM] | GI50 [8] [nM] | TGI [8] [nM] | GI50 [9] [nM] | TGI [9] [nM] | GI50 [10] [nM] | TGI [10] [nM]
CCN1C(=O)N(CC)C2C1NN=c1s/c(=C3\C(=O)N(C(C)C)c4ccccc43)c(=O)n12 (centres undefined) | 377 | > 100000 | 466 | > 36200 | 396 | > 100000 | 246 | 830 | 403 | 12100 | 441 | 23200 | 240 | 630 | 1070 | > 100000 | – | – | – | –
c1ccc2[nH]c(-c3ccc(N4CCN(c5ccc(-c6nc7ccccc7[nH]6)cc5)CC4)cc3)nc2c1 | 44600 | > 100000 | 83000 | > 100000 | 34500 | > 100000 | > 100000 | > 100000 | – | – | 24200 | > 100000 | > 100000 | > 100000 | 43000 | > 100000 | > 100000 | > 100000 | 30400 | > 100000
CC1=C(C(=O)OCc2ccccc2)C(c2ccc3c(c2)OCO3)n2c(nc3ccccc32)N1 (centres undefined) | 418 | > 100000 | 513 | > 100000 | 236 | > 100000 | 321 | > 100000 | 467 | > 100000 | > 100000 | > 100000 | 341 | > 100000 | > 100000 | > 100000 | 305 | > 100000 | 508 | > 100000
CCc1c(C)[nH]c(/C=C2\N=C(c3ccc[nH]3)C=C2OC)c1C | < 25.7 | 2110 | 341 | 1590 | 400 | 6930 | 747 | 3030 | 2950 | 13500 | 812 | 8830 | 127 | 2100 | 365 | 1870 | 473 | 4110 | 545 | 3220
COC(=O)C(CC(C)C)NC(=O)C(Cc1cnc[nH]1)NC(=O)CNC(=O)C(NC(=O)C(C)NC(=O)C(Cc1c[nH]c2ccccc12)NC(=O)C(CCC(=O)O)NC(=O)C(N)Cc1c(F)c(F)c(F)c(F)c1F)C(C)C (centres undefined) (H-[Phe(F5)]EWAVGHL-OMe; configuration not given here) | > 100000 | > 100000 | > 100000 | > 100000 | – | > 12500 | > 100000 | > 100000 | – | > 12500 | – | > 12500 | > 100000 | > 100000 | > 100000 | > 100000 | > 100000 | > 100000 | – | > 12500
N=C(N)c1nn(C2OC(CO)C(O)C2O)c2nc[nH]c(=O)c12 (centres undefined) | 434 | – | 431 | 1630 | 482 | 5090 | 643 | 3260 | 409 | 2970 | 611 | 3740 | 207 | 538 | 336 | 1550 | 696 | 4890 | 255 | 2710
